Values of other authors in patent US6565840B1, “Monomeric compositions effective as wound closure devices” (Closure Medical Corporation, priority 1996, dated 2003).

pKa: 5.9
Structure (SMILES): CC(=O)C(C(C)=O)C(C)=O [triacetylmethane]
